Results published in a melting point compilation (Tetko et al.; mined from patent text by program, amines drawn as free bases though some values may be those of a salt).

Structure (SMILES)	melting point
CC(=O)SCC(C)C(=O)N(CC(=O)O)c1ccccc1 (configuration not stated)	94 to 94.5 °C
CCOP(=O)(OCC)C1(P(=O)(OCC)OCC)CC(C(=O)CC)=NN1	96 to 98 °C
CC1(C)OC(=O)Nc2ccc(-c3cncc(C#N)c3)cc21	290 to 291 °C
CN1Cc2c(C#N)ncn2-c2sccc2C1=O	197 to 200 °C
COC(=O)[C@H]1CC[C@H](NC(=O)c2cc(-c3ccc(C#N)cc3)nnc2N2CCOCC2)CC1	269 to 271 °C
CN(C)C(=S)C(O)c1ccccc1C(F)(F)F (configuration not stated)	112 to 115 °C
CNC(=O)N1C2c3ccccc3OCC2(C(=O)OC)CN1C(=O)Nc1ccc(C(F)(F)F)cc1 (configuration not stated)	208 to 209 °C
CCCCCCCC(=O)OC(=C1C(=O)N(C(N)=O)c2cc(Cl)c(F)cc21)c1cccs1	149 to 150 °C
O=C(O)COc1cc(C(=O)O)ccc1NC(=O)NC(=O)c1ccc(F)cc1Cl	279 to 281 °C
CC(=O)c1ccc(-c2ccc(C#N)o2)cc1	122 to 125 °C
NNc1ccc(CS(N)(=O)=O)cc1	156 to 158 °C
CCn1ccnc1CC1COc2ccccc2O1 (configuration not stated)	77 to 78 °C
CCc1cc2c(Cl)cc(F)c(-n3c(=O)cc(C(F)(F)F)n(N)c3=O)c2o1	145 to 147 °C
CCn1ncc2c3noc(-c4ccc(Cl)cc4)c3cnc21	248 to 250 °C
Cc1c(NC(=O)CC(C)(C)C)cc2c(c1C)OCC2(C)c1ccc(C(C)C)cc1 (configuration not stated)	132 to 133 °C
NC(=O)NNc1c(Cl)cccc1Cl	288 to 290 °C
CC12CCC(S(=O)(=O)C(F)(F)F)=CC1=CCC1C2CCC2(C)C(C(=O)O)CCC12 (configuration not stated)	182 °C
O=[N+]([O-])c1cc(Cl)cnc1Oc1ccc(O)cc1	125 to 126 °C
COC(=O)c1cc(I)cc(Cl)c1OC	41 to 43 °C
CN1CCC(Sc2ccccc2)C(C#N)C1 (configuration not stated)	114 °C
CC1SCCCNC1=O (configuration not stated)	192 to 193 °C
CCC(Oc1cc(Cl)cc(Cl)c1)C(=O)NC(C)(C)C#CCCO (configuration not stated)	104 to 106 °C

Structure (SMILES)	melting point
O=[N+]([O-])c1ccc(OCC(O)CO)c(O)c1 (configuration not stated)	162 °C
CCCCCCc1cc2c(s1)-n1c(C)nnc1CN=C2c1ccc(OC)cc1	97 to 99 °C
Oc1cc2ncnc(Nc3cccc(Cl)c3)c2cc1O	233 to 235 °C
CSc1ccc(C(O)c2ccccc2)cc1 (configuration not stated)	92 to 93.5 °C
CC(C)[C@@H]1CC[C@@H](C)C[C@H]1OC(=O)N1C(=O)O[C@@H](C(F)(F)F)[C@@H]1C(C)C	80 to 82 °C
CC(=O)Nc1cc2c3c(c1)c(=O)c(C(=O)O)cn3C(C)CC2 (configuration not stated)	> 310 °C
O=[N+]([O-])c1cccc(-c2cccc([N+](=O)[O-])c2)c1	200 °C
Cc1c(Cl)c2c(c3oc4ccccc4c(=O)c13)CC(C(=O)O)O2 (configuration not stated)	284 to 287 °C
Cc1cc2c(cc1S(=O)(=O)c1cc(Cl)ccc1Cl)OC(C(=O)O)O2 (configuration not stated)	155 to 157 °C
CCOCc1nc2c(N)nc(C)c(C)c2n1CCCN	127 °C
CC#COc1cc(-n2c(=O)n3n(c2=S)COCC3)c(Cl)cc1Cl	188 to 190 °C
O=[N+]([O-])c1ccc2c(ccn2CCCCl)c1	74 to 76 °C
Cc1c(-c2ccc3c(c2)C2(CCCCC2)C(=O)N3)sc2ccc(Cl)cc12	256 to 258 °C
CN(C)c1ccc(C=NO)c([N+](=O)[O-])c1	140 to 143 °C
Cc1cccc2c(=O)[nH]c(C3CCN(CCO)C3)cc12 (single isomer, unassigned; (-))	137 to 139 °C
COc1ccc(C(=O)[C@H]2CCCN2C(=O)C(F)(F)F)cc1OC	121 to 123 °C
Oc1ccc(C(=C2CCNCC2)c2ccccc2)cc1	> 260 °C
Clc1ncnc2ccoc12	122 °C
COC(=O)C1C(CC(C)C)C(C(=O)OC)C(O)(C(F)(F)F)OC1(O)C(F)(F)F (configuration not stated)	67 to 73 °C
CCOC(=O)C(C#N)=CNc1ncccc1CC	122 to 125 °C
COc1cc(-c2[nH]c(SC)nc2-c2ccc(F)cc2)ccn1	158 °C
COC(=O)C1CCC2C3CCC4CC(OC(C)=O)CCC4(C)C3C(NC3CCCCC3)CC12C (configuration not stated)	126 to 128 °C

Structure (SMILES)	melting point
COc1ccc(C2CNC(=O)C2)cc1OC (configuration not stated)	120 °C
O=C1CSCN1CC#CCN1CCC(n2c(=O)[nH]c3ccccc32)CC1	202 to 204 °C
Cn1c(C(F)(F)F)cc(=O)n(-c2ccc3snc(C=C(Br)Br)c3c2)c1=O	260 to 262 °C
Cn1ncc2[nH]c3c(F)cccc3c(=O)c21	> 300 °C
CSCC(=O)[C@H](CC1CCCCC1)NC(=O)[C@H](CC(C)C)NC(=O)OCc1ccccc1	83 to 84 °C
CCOC(=O)c1ccc2c(c1)Cc1ccc(C(=O)OCC)cc1O2	156 to 158 °C
CCn1c(=O)oc2cc([N+](=O)[O-])ccc21	133 to 135 °C
COCc1cc(O)n[nH]1	123 to 125 °C
Cc1ccc(C)c(NC(=O)C(C)c2ccc(N)c([N+](=O)[O-])c2)c1 (configuration not stated)	187 to 188 °C
CNC(=O)COC(=O)N1CCN(CCOc2ccc(Cl)cc2)CC1	159 to 161 °C
CC(C)(C)[Si](C)(C)Oc1cc(Cl)cc(C(=O)C(F)(F)F)c1N	45 to 46.5 °C
CC(=O)C12OC1CC1C3CC=C4CC(O)CCC4(C)C3CCC12C (configuration not stated)	194 to 196 °C
C[C@H]1CCCN(C(=O)[C@@H]2Cc3ccccc3N2c2ccc(=S)n(C)n2)C1	249 to 252 °C
CC(O)(CCSc1cc(C(C)(C)C)c(O)c(C(C)(C)C)c1)CC(=O)CCSc1cc(C(C)(C)C)c(O)c(C(C)(C)C)c1 (configuration not stated)	108 to 110 °C
CC(C)(C)NC(=O)NC1(C#N)CCCC1	206 to 207 °C
CC(C)(C)C(=O)c1cncnc1	64 to 66 °C
CCCNC(=O)c1cnc2ccccc2c1O	210 °C
CC(=O)NCCc1cnn2ccc3c(c12)CCO3	174 to 175 °C
OCCCc1cnoc1-c1ccc(Cl)cc1	58 to 59 °C
CCN(CCCOC)c1nc(C)nc2c1nnn2-c1ccc(C(C)C)cc1Br	109 to 110 °C

Further lines, results first:

melting point	Structure (SMILES)
162 to 164 °C	CN(C)Cc1cc(C(=O)c2ccc3ccccc3c2)cc(C(C)(C)C)c1O
97 to 100 °C	Cn1c(COc2ccc(CC3SC(=O)N(C(c4ccccc4)(c4ccccc4)c4ccccc4)C3=O)cc2)nc2cc(Br)cnc21 (configuration not stated)
258 to 259 °C	COc1cc2c(Nc3ccc(C)c(O)c3)ncnc2cc1OCc1cccnc1
200 to 202 °C	O=C(/C=C/c1ccc2ccccc2c1)N1CCN(Cc2cccc(CN3CCN(C(=O)/C=C/c4ccc5ccccc5c4)CC3)n2)CC1
65 to 68 °C	O=Cc1cccc(Cl)c1SCc1ccccc1
116 to 118 °C	CC(=O)c1nc2cccc(Oc3ccccc3)c2cc1OCc1ccccc1
57 to 59 °C	O=[N+]([O-])c1ccc(NCCc2ccccc2)cc1
223 to 226 °C	CC(C)(C)NC(=O)CN1C(=O)C(NC(=O)Nc2cccc(Cl)c2)CC(C2CCCCC2)c2ccccc21 (configuration not stated)
197 to 198 °C	CC1Cc2c(N3C(=O)c4ccccc4C3=O)ccc(Cl)c2O1 (configuration not stated)
250 to 254 °C	Cc1cc(Nc2ccc(NC(=O)c3ccc(Nc4ccnc5ccc(Cl)cc45)cc3)cc2)nc(N)n1
145 to 148 °C	CC(=CCO)c1ccc(-c2ccc(Br)cc2)cc1
71.5 to 73 °C	COC(=O)c1nc(N(C)C)ccc1OCc1ccccc1
160 °C	Cc1ccc(S(=O)(=O)N2C=Cc3cccc(-n4cccc4)c3C2C#N)cc1 (configuration not stated)
123 to 125 °C	CCN(Cc1ccccc1)c1ccc(C2OC(=O)c3cc(N(C)C)ccc32)cc1 (configuration not stated)
170 to 190 °C	COCCNCc1ccc(-c2cc3ncnc(Nc4ccc5[nH]ccc5c4)c3s2)cc1
240 to 241 °C	CCOC(=O)C1=CNC2=C(C(=O)Nc3ccccc3)CCN2C1=O
133 to 134 °C	Clc1cc(Cl)n2c(-c3ccccc3)nc(Cl)c2n1
183 to 185 °C	CCCCc1c(Cl)nc(N)nc1-c1ccccc1
308 to 312 °C	Cn1cc(C(=O)O)c(=O)c2oc3ccccc3c(=O)c21

melting point	Structure (SMILES)
193 °C	COCCn1cc(C(=O)NCc2ccc(Cl)cc2)c(=O)c2cc(CO)sc21
155 to 157 °C	CN(C)CCC1CCCCN1CC(=O)N1c2ccccc2NC(=O)c2ccccc21 (configuration not stated)
79.5 to 82.5 °C	COc1ccccc1COC(=O)C(O)CNCCc1ccc(OC)c(OC)c1 (configuration not stated)
180 to 181 °C	NC(=O)CNC(=O)c1cccc(-c2ccc3c(c2)C(Oc2ccc(Cl)cc2Cl)CC3)c1 (configuration not stated)
93 to 95 °C	CC(C)c1cccc(C(C)C)c1NC(=O)CCN1CCN(CCCSc2nc3ccccc3o2)CC1
99 to 100 °C	COC(=O)c1cccc(-c2cc(-c3ccccc3)on2)c1
289 to 292 °C	CCc1ccc(-c2sc(NC(=O)c3ccc(S(=O)(=O)N4CCCC4C(=O)O)cc3)nc2-c2ccc(Cl)cc2)cc1 (configuration not stated)
124 to 126 °C	O=C1N(Cc2ccc(-c3ccccc3C(F)(F)F)o2)c2ccccc2C12COc1cc3c(cc12)OCOC3 (configuration not stated)
228 to 230 °C	COc1ccc2c(c1)c1c3c(c(-c4ccccc4Cl)cc1n2CCCO)C(=O)NC3=O
139 to 141 °C	C1=Cc2ccccc2C(N2CCNCC2)c2ccccc21
72 °C	CC1(C)C(C#CC(=O)OCC2CC2)C1C(=O)OC(C#N)c1cccc(Oc2ccccc2)c1 (configuration not stated)
258 to 260 °C	CSc1nc(-c2ccccc2)n(-c2ccc(C)cc2)c(=O)c1C#N
271 to 273 °C	COC(=O)c1ccc2[nH]cc(C(=O)c3ccccc3)c2c1
128 to 131 °C	CCCCOC(=O)c1ccc(OC(=O)c2ccc(C(=O)Oc3ccc(C(=O)OCCCC)cc3)cc2)cc1
282 to 283 °C	NC(=O)c1ccc(NC(=NC(=O)c2cccc(Br)c2)NC(=O)c2ccccc2)cc1
238 to 241 °C	Cc1ccc2cccc(OCc3c(Cl)ccc(N(C)C(=O)CNC(=O)C=Cc4ccc(C(=O)O)cc4)c3Cl)c2n1
127 to 129 °C	CN1CCC(=C2c3ccccc3C=C(Br)c3ccccc32)CC1
87 to 90 °C	O=C(O)CC(Cc1ccccc1)NC(=O)C1Cc2ccccc2N1S(=O)(=O)c1ccc(-c2ccc(F)cc2)cc1 (configuration not stated)
53 to 55 °C	Oc1ccc(Oc2cccc(F)c2)cc1
